Where a name gives a salt, the structure may show the parent alone. Read-outs that look alike come from different tables or passages of the source.
What was measured:
Test in all cases: MIC by broth microdilution (CLSI)
Format in all cases: cell-based
E. coli ΔtolC = conditions: Escherichia coli, 24 h, read-out: MIC E. coli ΔtolC, ΔtolC; CaMHB, 24 h incubation
Method: (§1) Minimum inhibitory concentrations (MICs) were determined by the broth microdilution method following the Clinical and Laboratory Standards Institute (CLSI) guidelines. Test organisms consisted of standard reference strains from the American Type Culture Collection (ATCC; Manassa, VA, USA) and clinical isolates obtained from JMI Laboratories Inc. (North Liberty, IA, USA), Micromyx repository (MMX; Kalamazoo, MI, USA), and Massachusetts Eye and Ear Hospital (Boston, USA). Before the start of the MIC experiment, standard and test compound stock solutions were prepared in dimethyl sulfoxide (DMSO, Aldrich D2650) at a stock concentration of 2,560 μg/mL. The compound concentration range typically employed for each experiment was 64-0.06 μg/mL (2.5% final DMSO concentration). Iboxamycin was used as a comparator in all experiments. All bacterial strains were sub-cultured on blood agar plates (tryptic soy agar with 5% sheep blood, Hardy Diagnostics) and incubated overnight at 35° C. Organisms were suspended in cation-adjusted Mueller-Hinton broth (CaMHB, BD 212322) and optical density was adjusted to 0.5 McFarland standard. Suspensions were further diluted to obtain a final inoculum of 5×10^5 CFU/mL for broth microdilution experiments. The minimum concentration of compound required to inhibit visible bacterial growth after 24 h of incubation was recorded as the MIC in μg/mL. MICs for P. aeruginosa were recorded in cation-adjusted Mueller-Hinton broth which had been pre-treated with Chelex 100 ion exchange resin according to procedures reported in Ito et al. Antimicrob Agents Chemother (2016) 60 (12), 7396-7401.

[1] = tested on: S. aureus ATCC 29213 (HAV#001); conditions: Staphylococcus aureus, ATCC29213, 24 h, read-out: MIC S. aureus ATCC 29213
Method: as §1

[2] = tested on: E. faecalis ATCC 29212 (HAV#005); conditions: Enterococcus faecalis, ATCC29212, 24 h, read-out: MIC E. faecalis ATCC 29212
Method: as §1

S. aureus MMX 3035 = conditions: Staphylococcus aureus, MMX3035, 24 h, read-out: MIC S. aureus MMX 3035
Method: as §1

E. faecium JMI-990536 = conditions: Enterococcus faecium, JMI990536, 24 h, read-out: MIC E. faecium JMI-990536
Method: as §1

[3] = tested on: A. baumannii ATCC 19606 (HAV#010); conditions: Acinetobacter baumannii, ATCC19606, 24 h, read-out: MIC A. baumannii ATCC 19606
Method: as §1

E. coli lptD mutant = conditions: Escherichia coli, 24 h, read-out: MIC E. coli lptD mutant, lptD mutant / ΔlptD mutant; CaMHB, 24 h incubation
Method: as §1

K. pneumoniae JMI-991193 = conditions: Klebsiella pneumoniae, JMI991193, 24 h, read-out: MIC K. pneumoniae JMI-991193
Method: as §1

S. aureus Clinical (cfr) = conditions: Staphylococcus aureus, 24 h, read-out: MIC S. aureus Clinical (cfr)
Method: as §1

[4] = tested on: E. coli ATCC 25922 (HAV#006); conditions: Escherichia coli, ATCC25922, 24 h, read-out: MIC E. coli ATCC 25922
Method: as §1

[5] = HAV#001, ATCC 29213, CaMHB, 24 h incubation
[6] = HAV#005, ATCC 29212, CaMHB, 24 h incubation
[7] = MMX 3035, CaMHB, 24 h incubation
[8] = JMI-990536, CaMHB, 24 h incubation
[9] = HAV#010, ATCC 19606, CaMHB, 24 h incubation
[10] = JMI-991193, CaMHB, 24 h incubation
[11] = Clinical (cfr), CaMHB, 24 h incubation
[12] = HAV#006, ATCC 25922, CaMHB, 24 h incubation

| Compound | MIC (E. coli ΔtolC) | MIC [1, 5] | MIC [2, 6] | MIC (S. aureus MMX 3035; [7]) | MIC (E. faecium JMI-990536; [8]) | MIC [3, 9] | MIC (E. coli lptD mutant) | MIC (K. pneumoniae JMI-991193; [10]) | MIC (S. aureus Clinical (cfr); [11]) | MIC [4, 12] | MIC [1] | MIC [2] | MIC (S. aureus MMX 3035) | MIC (E. faecium JMI-990536) | MIC [3] | MIC (K. pneumoniae JMI-991193) | MIC (S. aureus Clinical (cfr)) | MIC [4] |
| --- | --- | --- | --- | --- | --- | --- | --- | --- | --- | --- | --- | --- | --- | --- | --- | --- | --- | --- |
| CC(C)C[C@@H]1CCO[C@@H]2[C@H](CN[C@@H]2C(=O)N[C@@H]2C/C=C\C[C@@H](CN3CCOCC3)S[C@H]3O[C@H]2[C@H](O)[C@H](O)[C@H]3O)C1 [FSA1607019, (4S,5aS,8S,8aR)-4-isobutyl-N-((1R,3S,8R,9R,10R,11S,12R,Z)-10,11,12-trihydroxy-3-(morpholinomethyl)-13-oxa-2-thiabicyclo[7.3.1]tridec-5-en-8-yl) octahydro-2H-oxepino[2,3-c]pyrrole-8-carboxamide formate salt] | 0.25 µg/mL | 4 µg/mL | 2 µg/mL | 8 µg/mL | 4 µg/mL | 32 µg/mL | 0.5 µg/mL | > 64 µg/mL | 16 µg/mL | 4 µg/mL | – | – | – | – | – | – | – | – |
| CC(C)C[C@@H]1CCO[C@@H]2[C@H](CN[C@@H]2C(=O)N[C@@H]2C/C=C\C[C@H](CN3CCOCC3)S[C@H]3O[C@H]2[C@H](O)[C@H](O)[C@H]3O)C1 [FSA1607020, (4S,5aS,8S,8aR)-4-isobutyl-N-((1R,3R,8R,9R,10R,11S,12R,Z)-10,11,12-trihydroxy-3-(morpholinomethyl)-13-oxa-2-thiabicyclo[7.3.1]tridec-5-en-8-yl) octahydro-2H-oxepino[2,3-c]pyrrole-8-carboxamide formate salt] | 0.25 µg/mL | 4 µg/mL | 4 µg/mL | 16 µg/mL | 16 µg/mL | 32 µg/mL | 1 µg/mL | > 64 µg/mL | 16 µg/mL | 8 µg/mL | – | – | – | – | – | – | – | – |
| CC(C)C[C@@H]1CCO[C@@H]2[C@H](CN[C@@H]2C(=O)N[C@@H]2C/C=C\C[C@@H](F)CS[C@H]3O[C@H]2[C@H](O)[C@H](O)[C@H]3O)C1 [FSA1607022, (4S,5aS,8S,8aR)—N-((1R,4R,9R,10R,11R,12S,13R,Z)-4-fluoro-11,12,13-trihydroxy-14-oxa-2-thiabicyclo[8.3.1]tetradec-6-en-9-yl)-4-isobutyloctahydro-2H-oxepino[2,3-c]pyrrole-8-carboxamide formate salt] | 0.25 µg/mL | – | – | – | – | – | 0.25 µg/mL | – | – | – | ≤ 0.06 µg/mL | ≤ 0.06 µg/mL | 4 µg/mL | 1 µg/mL | 2 µg/mL | 8 µg/mL | 4 µg/mL | 2 µg/mL |
| CC(=O)OC[C@@H]1C/C=C\C[C@@H](NC(=O)[C@H]2NC[C@@H]3C[C@H](CC(C)C)CCO[C@H]32)[C@H]2O[C@H](S1)[C@H](O)[C@@H](O)[C@H]2O [FSA1607032, ((1R,3S,8R,9R,10R,11S,12R,Z)-10,11,12-trihydroxy-8-((4S,5aS,8S,8aR)-4-isobutyloctahydro-2H-oxepino[2,3-c]pyrrole-8-carboxamido)-13-oxa-2-thiabicyclo[7.3.1]tridec-5-en-3-yl)methyl acetate formate salt] | 0.25 µg/mL | – | – | – | – | – | 2 µg/mL | – | – | – | 0.5 µg/mL | 0.5 µg/mL | 4 µg/mL | 2 µg/mL | 32 µg/mL | 64 µg/mL | 16 µg/mL | 8 µg/mL |
| CC(C)C[C@@H]1CCO[C@@H]2[C@H](CN[C@@H]2C(=O)N[C@@H]2C/C=C\C[C@@H](C(F)F)S[C@H]3O[C@H]2[C@H](O)[C@H](O)[C@H]3O)C1 [FSA1607044, (4S,5aS,8S,8aR)—N-((1R,3S,8R,9R,10R,11S,12R,Z)-3-(difluoromethyl)-10,11,12-trihydroxy-13-oxa-2-thiabicyclo[7.3.1]tridec-5-en-8-yl)-4-isobutyloctahydro-2H-oxepino[2,3-c]pyrrole-8-carboxamide formate salt] | 0.5 µg/mL | – | – | – | – | – | 2 µg/mL | – | – | – | 0.125 µg/mL | 0.125 µg/mL | 2 µg/mL | 1 µg/mL | 8 µg/mL | 16 µg/mL | 16 µg/mL | 8 µg/mL |
| CC(C)C[C@@H]1CCO[C@@H]2[C@H](CN[C@@H]2C(=O)N[C@@H]2C/C=C\C[C@@H](c3cn(-c4ccccc4)nn3)S[C@H]3O[C@H]2[C@H](O)[C@H](O)[C@H]3O)C1 [FSA1607075, (4S,5aS,8S,8aR)-4-isobutyl-N-((1R,3S,8R,9R,10R,11S,12R,Z)-10,11,12-trihydroxy-3-(1-phenyl-1H-1,2,3-triazol-4-yl)-13-oxa-2-thiabicyclo[7.3.1]tridec-5-en-8-yl) octahydro-2H-oxepino[2,3-c]pyrrole-8-carboxamide formate salt] | 2 µg/mL | 2 µg/mL | 2 µg/mL | 4 µg/mL | 2 µg/mL | 8 µg/mL | 2 µg/mL | 32 µg/mL | 8 µg/mL | 4 µg/mL | – | – | – | – | – | – | – | – |
| C#C[C@@H]1C/C=C\C[C@@H](NC(=O)[C@H]2NC[C@@H]3C[C@H](CC(C)C)CCO[C@H]32)[C@H]2O[C@H](S1)[C@H](O)[C@@H](O)[C@H]2O [FSA1607077, (4S,5aS,8S,8aR)—N-((1R,3S,8R,9R,10R,11S,12R,Z)-3-ethynyl-10,11,12-trihydroxy-13-oxa-2-thiabicyclo[7.3.1]tridec-5-en-8-yl)-4-isobutyloctahydro-2H-oxepino[2,3-c]pyrrole-8-carboxamide formate salt] | 1 µg/mL | – | – | – | – | – | 1 µg/mL | – | – | – | ≤ 0.125 µg/mL | ≤ 0.125 µg/mL | 4 µg/mL | 2 µg/mL | 8 µg/mL | 16 µg/mL | 16 µg/mL | 4 µg/mL |
| CC(C)C[C@@H]1CCO[C@@H]2[C@H](CN[C@@H]2C(=O)N[C@@H]2C/C=C\C[C@@H](c3c[nH]nn3)S[C@H]3O[C@H]2[C@H](O)[C@H](O)[C@H]3O)C1 [FSA1607090, (4S,5aS,8S,8aR)-4-isobutyl-N-((1R,3S,8R,9R,10R,11S,12R,Z)-10,11,12-trihydroxy-3-(1H-1,2,3-triazol-4-yl)-13-oxa-2-thiabicyclo[7.3.1]tridec-5-en-8-yl) octahydro-2H-oxepino[2,3-c]pyrrole-8-carboxamide formate salt] | 4 µg/mL | 8 µg/mL | 32 µg/mL | 32 µg/mL | 16 µg/mL | > 64 µg/mL | 8 µg/mL | > 64 µg/mL | > 64 µg/mL | > 64 µg/mL | – | – | – | – | – | – | – | – |
| CC(C)C[C@@H]1CCO[C@@H]2[C@H](CN[C@@H]2C(=O)N[C@@H]2C/C=C/[C@H](O)CS[C@H]3O[C@H]2[C@H](O)[C@H](O)[C@H]3O)C1 [FSA1608009, (4S,5aS,8S,8aR)-4-isobutyl-N-((1R,4S,8R,9R,10R,11S,12R,E)-4,10,11,12-tetrahydroxy-13-oxa-2-thiabicyclo[7.3.1]tridec-5-en-8-yl) octahydro-2H-oxepino[2,3-c]pyrrole-8-carboxamide formate salt] | > 64 µg/mL | 32 µg/mL | > 64 µg/mL | > 64 µg/mL | > 64 µg/mL | > 64 µg/mL | > 64 µg/mL | > 64 µg/mL | > 64 µg/mL | > 64 µg/mL | – | – | – | – | – | – | – | – |

Reference: patent US20250270246A1, “LINCOSAMIDES AND USES THEREOF” (President and Fellows of Harvard College, priority 2022, published 2025)
